# pEC50: −log10 of the molar value. Read-outs that look alike come from different tables or passages of the source.
# Assays:
# [1] = HEK293T 72 h cytotoxicity (CellTiter-Glo); format: cell-based, human; settings: human
# Procedure: (§1) Two mammalian cell lines were used for counter-screening for general cytotoxicity of hit compounds: human embryonic kidney cells (HEK293T; ATCC CRL-3216) and human hepatocellular carcinoma cells (HepG2; ATCC HB-8065). […] Compounds were pre-spotted into tissue culture-treated white solid-bottomed 1536-well plates (Greiner) in a 1:3 dose-response dilution (top concentration 20 μM). HEK293T and HepG2 cells were diluted to 75×10^3 cells/mL and 150×10^3 cells/mL, respectively, and 5 μL/well were dispensed into assay plates with a MultiFlo FX Multi-Mode Dispenser (Biotek). […] At the completion of the assay, CellTiter-Glo (Promega) was prepared at 1:2 (reagent:water) of the manufacturer’s instructions, and 2 μL were dispensed into each well. After a 5 min incubation at room temperature, luminescence readings were measured with an EnVision Multilabel Plate Reader (Perkin Elmer). […] were uploaded into Genedata Screener (v13.0-Standard), and data normalized to DMSO- and puromycin-treated wells. A four-parameter non-linear regression curve fit was applied to dose-response data using Genedata to determine the half maximal cytotoxic concentration (CC50) of each compound.
# Cryptosporidium parvum = test: C. parvum proliferation in HCT-8 cells, 48 h high-content imaging assay; format: cell-based, Cryptosporidium parvum (Iowa strain); settings: for pEC50: HCT-8 cells, read-out: EC50 against C. parvum; for pEC50 / EC50: 48 h; for EC50: in HCT-8 cells, value (SD; n), read-out: C. parvum 48H Assay EC50 [µM] (SD; n); for EC99 against C. parvum: concentration used in washout assay
# [2] = tested on: Cryptosporidium hominis (TU502); test: C. hominis proliferation in HCT-8 cells, 48 h high-content imaging assay; format: cell-based; settings: read-out: C. hominis 48H Assay EC50 [µM] (SD; n)
# Procedure: Methods for continuous, in vitro cultivation of Cryptosporidium spp. have not been well established. Instead, in vivo oocyst propagation of C. parvum is performed in calves, a more promiscuous Cryptosporidium species for animal and human infections. For C. hominis, gnotobiotic piglets are the primary means of propagation. The calf is the more accessible model, making C. parvum the more convenient species to screen. However, C. hominis is equally clinically relevant with regards to human cryptosporidiosis. […] High purity powders of the 10 filtered C. parvum Bioactives screen hits and both GHCDL screen hits were tested against C. hominis (TU502) to confirm activity against both species.
# (§2) Cells were then plated (5 μL/well) into 1536-well assay plates at a density of 5.5×10^5 cells/mL (2,750 cells/well).
# C. parvum oocysts (Iowa strain, isolated from infected calves) were purchased from the Sterling Parasitology Laboratory, University of Arizona, and stored at 4°C for ≤ 3 months in an antibiotic solution (0.01% Tween 20 containing 100 U/mL penicillin and 100 μg/mL gentamicin). C. hominis oocysts (TU502, isolated from gnotobiotic piglets) were purchased from the Tzipori Laboratory, Cummings School of Veterinary Medicine, Tufts University, and stored at 4°C for ≤ 2 weeks in an antibiotic solution (100 U/mL penicillin and 100 μg/mL streptomycin). For infection of assay plates, 24 h after cell seeding, oocysts were excysted and prepared for inoculation as previously described. Briefly, the oocysts were diluted into 1 mL pre-warmed 10 mM HCl and then incubated in a 37°C water bath for 10 min. Oocysts were then pelleted at 3,000×g for 1 min in a microcentrifuge (Thermo), and the supernatant was carefully aspirated. Oocysts were resuspended in 2 mM sodium taurocholate in DPBS++ (with 0.9 mM CaCl2 and 0.5 mM MgCl2) and incubated at room temperature for 20 min. After incubation in bile salts, the oocysts were diluted 1:100 and free sporozoites and intact oocysts were enumerated to determine the percentage of excystation.
# Plates were then washed twice with phosphate buffered saline (PBS). […] To prevent non-specific binding, the cells were blocked with SuperBlock™ T20 blocking agent (Thermo) for 1 h at room temperature. Cryptosporidium parasites were stained with 1 μg/mL fluorescein isothiocyanate (FITC)-conjugated Vicia villosa lectin (Vector Laboratories) in 1:10 diluted SuperBlock™ in PBS-T, supplemented with 3 μM 4',6-diamidino-2-phenylindole (DAPI) to visualize host cell nuclei. Staining was for 1 h at room temperature in the dark. Finally, cells were washed twice with PBS-T and the plates were sealed with adhesive foil. The plates were imaged with a CellInsight CX5 High Content Screening Platform (Thermo) with a 10× objective. […] The software identified primary objects (HCT-8 host cells) and spots within allowed distances to the nuclei (Cryptosporidium). Both cytotoxicity against HCT-8 cells (number of nuclei relative to DMSO-treated controls) and Cryptosporidium inhibition (spot counts relative to DMSO-treated controls) were assessed.
# Images were processed by the HCS Studio Scan software, and Selected Object Count (HCT-8 cells) and Spot Count (Cryptosporidium) were analyzed in Genedata Screener (v13.0-Standard). Spot Count and Selected Object Count were normalized to neutral controls minus inhibitors (floxuridine for Spot Count, and puromycin for Selected Object Count).
# C. parvum [3] = test: Washout assay: 3-h treatments over the asexual life cycle of C. parvum
# Procedure: We examined short, three-hour compound treatments of in vitro cultures, followed by compound washout, that covered the complete asexual life cycle, believed to be 13–15 h post invasion [36]. […] The treatment interval lasted 3 h before washout with fresh medium; infected cells were allowed to grow until 48 h post infection before fixation. […] As CFZ is very lipophilic, we sought to determine whether intracellular accumulation was affecting the strong inhibition across each time point.
# Infected cells were treated in six 3-h increments over the course of 15 h (the presumed in vitro asexual lifecycle of C. parvum). HCT-8 cells were seeded (25 μL/well) into clear-bottomed 384-well plates (Greiner) at a density of 6.0×10^5 cells/mL (15,000 cells/well) in assay medium, and allowed to grow 24 h at 37°C with 5% CO2 in a humidified tissue culture incubator, covered with a custom metal lid (The Genomics Institute of the Novartis Research Foundation) to reduce evaporation. After 24 h, and 2 h before infecting with C. parvum oocysts (time -2 hpi), the treatment time course was initiated. […] DMSO was used as a negative control. Cell medium was removed from designated wells and replaced with medium containing either compound or DMSO. […] Plates were then spun at 150×g for 3 min, and kept at 37°C with 5% CO2 in a humidified tissue culture incubator during drug treatment intervals. At the end of each 3 h time point, infected cells were carefully washed three times with fresh, pre-warmed assay medium, and the next set of wells for the subsequent time point were treated. The final time point extended to 18 h, to cover re-invasion of merozoites into new HCT-8 cells. After the final compound treatment was washed off, infected cells were allowed to grow until 48 h post infection.
# C. parvum [4] = test: Host cell 3-h pre-treatment, with or without wash, then C. parvum infection; format: cell-based, Cryptosporidium parvum; settings: for pEC50: Cryptosporidium parvum, host cells pretreated 3 h, C. parvum, 48 hpi
# Procedure: A set of parallel wells were also treated and not washed prior to infection. 48 hpi, infected cells were imaged as described above, and EC50s for each compound pre- and post-wash were determined.
# in vitro = settings: human
# Procedure: as §2
# (§3) Plates were then washed twice with phosphate buffered saline (PBS). […] To prevent non-specific binding, the cells were blocked with SuperBlock™ T20 blocking agent (Thermo) for 1 h at room temperature. Cryptosporidium parasites were stained with 1 μg/mL fluorescein isothiocyanate (FITC)-conjugated Vicia villosa lectin (Vector Laboratories) in 1:10 diluted SuperBlock™ in PBS-T, supplemented with 3 μM 4',6-diamidino-2-phenylindole (DAPI) to visualize host cell nuclei. Staining was for 1 h at room temperature in the dark. Finally, cells were washed twice with PBS-T and the plates were sealed with adhesive foil. The plates were imaged with a CellInsight CX5 High Content Screening Platform (Thermo) with a 10× objective. […] For 1536-well format assays (primary screening, triplicate reconfirmation, and dose-response reconfirmation, one microscopic field (802,511.39 μm^2) per well, and for the 384-well washout assay, 4 fields per well were captured. The software identified primary objects (HCT-8 host cells) and spots within allowed distances to the nuclei (Cryptosporidium). Both cytotoxicity against HCT-8 cells (number of nuclei relative to DMSO-treated controls) and Cryptosporidium inhibition (spot counts relative to DMSO-treated controls) were assessed.
# (§4) Images were processed by the HCS Studio Scan software, and Selected Object Count (HCT-8 cells) and Spot Count (Cryptosporidium) were analyzed in Genedata Screener (v13.0-Standard). Spot Count and Selected Object Count were normalized to neutral controls minus inhibitors (floxuridine for Spot Count, and puromycin for Selected Object Count). For single-point primary assay plates, an additional run-wise median correction was applied to reduce screen artifacts (e.g. uneven dispense), whereas no correction was applied to triplicate reconfirmation and dose-response plates. For primary screening, a compound is considered a hit by a ≥ 70% reduction in Corrected Spot Count. Compounds that caused moderate cytotoxicity were filtered out (i.e., excluding all Corrected Selected Object Counts ≤ -60%). Dose-response curves were fit with Genedata Analyzer using the Smart Fit function.
# [5] = HepG2 72 h cytotoxicity (CellTiter-Glo); format: cell-based, human; settings: human
# Procedure: as §1
# HEK293T = HEK293T 72 h cytotoxicity (CellTiter-Glo); format: cell-based, human
# Procedure: as §1
# HCT-8 (Host cells) = test: in vitro
# Procedure: as §2, §3, §4
# HepG2 = HepG2 72 h cytotoxicity (CellTiter-Glo); format: cell-based, human
# Procedure: as §1
# [6] = Cryptosporidium hominis, in HCT-8 cells, 48 h, value (SD; n)
# [7] = in HCT-8 cells, 48 h, value (SD; n)
# [8] = HEK293T cells, 72 h, value (SD; n), read-out: HEK293T 72H Cytotoxicity CC50 [µM] (SD; n)
# [9] = HepG2 cells, 72 h, value (SD; n), read-out: HepG2 72H Cytotoxicity CC50 [µM] (SD; n)
# [10] = 72 h, value (SD; n), read-out: HEK293T 72H Cytotoxicity CC50 [µM] (SD; n)
# [11] = 72 h, value (SD; n), read-out: HepG2 72H Cytotoxicity CC50 [µM] (SD; n)
# [12] = read-out: HCT-8 (Host cells) 48H Assay CC50 [µM] (SD; n), 48 h, value (SD; n)
Molecule,pEC50 (Cryptosporidium parvum; Cryptosporidium parvum),EC50 (Cryptosporidium parvum; Cryptosporidium parvum) [µM],"EC50 [2, 6] [µM]",EC50 (Cryptosporidium parvum) [µM],"EC50 [2, 7] [µM]","CC50 at 72 h [1, 8] [µM]",CC50 at 48 h (in vitro; HCT-8 cells) [nM],"CC50 at 72 h [5, 9] [µM]",also measured
"O=c1[nH]c(=O)n([C@H]2C[C@H](O)[C@@H](CO)O2)cc1F [5-fluoro-2'-deoxyuridine; Floxuridine, 5-fluoro-2'-deoxyuridine]",7.77,0.0172,0.0182,,,,,,"CC50 at 72 h [1]: 0.0471 µM; EC99 against C. parvum (Cryptosporidium parvum): 0.1 µM; inhibition of C. parvum proliferation, every 3-h time point of the asexual life cycle (C. parvum [3]; treated at EC99 for 3 h, washout, read at 48 hpi): strong inhibition of growth across all time points; pEC50 (C. parvum [4]; read-out: Post-wash EC50): 8.03; pEC50 (C. parvum [4]; read-out: Pre-wash EC50): 7.28; inhibition of C. parvum proliferation after compound removal by repeated washes (C. parvum [4]; host cell pre-treatment, dose-response): near equipotent inhibition; CC50 at 48 h (in vitro): 154 nM; CC50 at 72 h [5]: 0.214 µM"
Rocilinostat [Rocilinostat; ACY-1215],,,,0.356,0.451,,,,CC50 (HEK293T): 12.1 µM; CC50 (HCT-8 (Host cells)): 11.4 µM; CC50 (HepG2): 0.849 µM
Vorinostat [Vorinostat; SAHA],,,,,,,,,CC50 (HEK293T): 4.27 µM; CC50 (HCT-8 (Host cells)): 1.84 µM; CC50 (HepG2): 1.07 µM
Cn1c2ccccc2c2c3c(c4c5ccccc5n(CCC#N)c4c21)CNC3O (stereo not drawn) [Gö 6976],8.60,0.00245,0.00496,,,0.124,> 12500,> 20,
Cc1csc(NCC(O)c2c[nH]c3ccccc23)n1 (stereo not drawn) [GHCDL-2],6.53,,0.946,,,> 20,> 12500,> 20,
CC[C@@]1([C@@H]2O[C@@H]([C@H]3O[C@@](O)(CO)[C@H](C)C[C@@H]3C)C[C@@H]2C)CC[C@H]([C@]2(C)CC[C@]3(C[C@H](O)[C@@H](C)[C@@H]([C@@H](C)[C@@H](OC)[C@H](C)C(=O)O)O3)O2)O1 [Monensin sodium],8.15,0.00704,,,,,,,"CC50 at 72 h [1, 10]: 0.516 µM; EC50 ([2]; Cryptosporidium hominis, HCT-8, 48 h): 0.0103 µM; CC50 at 48 h (in vitro): > 12500 nM; CC50 at 72 h [5, 11]: 1.65 µM"
COc1cc(Nc2ncc(F)c(Nc3ccc4c(n3)NC(O)C(C)(C)O4)n2)cc(OC)c1OC (stereo not drawn) [R406],,0.254,0.647,,,> 20,> 12500,0.596,
Oc1ccc(Cl)cc1NC(S)NC(O)c1cccc(Br)c1 (stereo not drawn) [NSC215721],,0.278,0.176,,,> 20,> 12500,> 20,
Momelotinib [Momelotinib; CYT-387],,,,0.37,0.389,,,,CC50 (HEK293T): 19 µM; CC50 (HCT-8 (Host cells)): 6.05 µM; CC50 (HepG2): 7.76 µM
OC1CCCC2Nc3nonc3NC(c3ccc(Cl)cc3Cl)C12 (stereo not drawn) [GHCDL-1],5.85,,2.82,,,> 20,> 12500,> 20,
Puromycin,,,,0.482,0.742,,,,CC50 (HEK293T; [10]): 0.519 µM; CC50 (HCT-8 (Host cells); [12]): 3.15 µM; CC50 (HepG2; [11]): 1.13 µM
Nitazoxanide,,,,2.84,2.82,,,,"CC50 (HEK293T; [10]): > 48 µM; pEC50 (Cryptosporidium parvum): 5.55; EC99 against C. parvum (Cryptosporidium parvum): 8 µM; inhibition of parasite growth at all time points other than 10–13 h post infection (C. parvum [3]; 3-h treatment then washout, even at 3×EC99): < 60%; CC50 (HCT-8 (Host cells); [12]): > 10 µM; CC50 (HepG2; [11]): > 48 µM"
